# “Also recorded” adds a separate entry of the source. Like-named read-outs stand apart in the source and are kept apart here.
# Tests used:
# [1] = tested on: RM1-BoMe3 cells on femur pieces; test: Bone-in-culture array (BICA) with RM1-BoMe3 cells; format: cell-based, mouse; conditions: bone pre-treated with Olaparib 20 μM 48 h, ADT conditions
# Procedure: 8-week-old C57B16 male mice were euthanized, and lower limb bone were collected. Femur epiphyses were dissected and fragmented in 4 pieces by sterilized micro dissecting scissors. Bone pieces were aligned into low-attachment 96-well plates pre-loaded with 200 μL DMEM/F12 supplemented with 5% charcoal striped FBS for ADT conditions. Bone pieces were treated with DMSO or Olaparib 20 μM for 48 h and then 5000 RM1-BoMe3-RFP-Luc cells were seed on top of the bone pieces. After 48 hours, pictures were taken using EVOS M5000 Imaging System and RFP^+ positive areas were measured using Fiji.
# [2] = tested on: p62 in prostate, lung, breast and endometrial primary fibroblasts; test: p62 immunoblot in primary fibroblasts of different tissue origins; format: cell-based; conditions: Olaparib 20 μM, 4 days
# Procedure: Cells for protein analysis were lysed in RIPA buffer (20 mM Tris-HCl, […], 2 mM EDTA, 1% Triton-X, 10% glycerol, 0.1% SDS, and 0.5% sodium deoxycholate) with phosphatase and protease inhibitors. For immunoprecipitations, cells were lysed in IP lysis buffer (100 mM NaCl, 25 mM Tris, 1% Triton-X, 10% glycerol, with phosphatase and protease inhibitors) and immunoprecipitated with 25 μl of 50% slurry of protein […] beads (Bioworld). Immunoprecipitates were washed three times with lysis buffer, once with high salt (500 mM NaCl), and once more with lysis buffer. Protein concentration in lysates was determined by using Protein Assay Kit (Bio-Rad). Cell extracts and immunoprecipitated proteins were denatured, subjected to SDS-PAGE, transferred to PVDF membranes (GE Healthcare). After blocking with 5% nonfat dry milk in Tris-buffered saline and 0.1% Tween (TBS-T), the membranes were incubated with the specific antibodies (as listed in Key Resources Table) overnight at 4° C. After 2 hours incubation with the appropriate horseradish peroxidase-conjugated antibodies, the immune complexes were detected by chemiluminescence (Thermo Scientific) or Near-infrared fluorescence (LI-COR).
# PC3^GFP cells = test: Survival of GFP-labeled PC3 cells alone or co-cultured with WPMY-1 cells; format: cell-based, human; conditions: Olaparib 5 μM, 10 days, basal and ADT
# Procedure: Co-culture assays were performed as described previously (Valencia et al., 2014). Briefly, stromal cells were seeded in TC-treated 6-well plates and allowed to attach for 6 hours before PCa cells were seeded on top of Milicell Cell Culture Inserts (Millipore). Inserts were then placed in the pre-seeded 6-well plate. For co-culture experiments of PC3-GFP label with WPMY-1 cells, 500 PC3 and 1000 WPMY-1 were seeded in a 96 well plate in DMEN containing 10% FBS (basal conditions) or 10% charcoal stripped FBS (ADT conditions) and vehicle (DMSO) or Olaparib 5 μM for 10 days. Media and treatments were refresh every 48 hours. Pictures were taken using EVOS M5000 Imaging System and GFP positive were measured using Fiji (Schindelin et al., 2012).
# WPMY-1 cells = test: Autophagy activation by LC3 lipidation in WPMY-1 cells; format: cell-based, human; conditions: with lysosomal inhibitors
# Source text: To knock out PARP-1 in WPMY-1 cells, single-guide RNA sequences targeting PARP-1 exon2 were purchased from Synthego and transduced into WPMY-1 cells with recombinant Streptococcus pyogenes Cas9 protein (Truecut Cas9 Protein v2, Thermo), using the Neon Transfection System 1 (Invitrogen) following the manufacturer's protocol and single clones were expanded and screened by protein immunoblotting. To perform AP1-A binding site editing in the SQSTM promoter in WPMY-1 cells, single-guide RNA sequences targeting the human AP1-A binding site (Synthego) was transduced into cells with a Cas9 protein and a single-stranded donor oligonucleotide (ssODN, IDT) using Neon Electroporation System. Single clones were expanded and screened for AP1-A editing by Sanger sequencing. A point mutation to disrupt the API enhancer element in the p62 promoter was introduced by Site Directed Mutagenesis (Stratagene). Knockdown of MCT1, MCT4, FOS, PARP1, PARP2, CD38, ATG5, and SIRT1-7 genes in WPMY-1 cells were achieved by siRNA transfection using Lipofectamine RNAiMAX Transfection Reagent (Invitrogen). […]
# Cells for protein analysis were lysed in RIPA buffer (20 mM Tris-HCl, […], 2 mM EDTA, 1% Triton-X, 10% glycerol, 0.1% SDS, and 0.5% sodium deoxycholate) with phosphatase and protease inhibitors. […] Protein concentration in lysates was determined by using Protein Assay Kit (Bio-Rad). […]
# [3] = tested on: prostate cancer bone metastasis; test: Paired biopsies of bone metastasis from a mCRPC patient, IHC for HA; format: in vivo, human
structure (smiles),measurement,setting,value
O=C(c1cc(Cc2n[nH]c(=O)c3ccccc23)ccc1F)N1CCN(C(=O)C2CC2)CC1 [Olaparib],seeding of cancer cells onto the bone (RFP+ area),[1],increased tumor homing of RM1-BoMe3
same,seeding of cancer cells onto the bone (RFP+ area),[1]; listed as Ola,significantly increased the seeding of cancer cells onto the bone
same,p62 expression,[2],downregulated p62 expression
same,"sensitivity of PC3^GFP cells to Olaparib, co-culture vs monoculture",PC3^GFP cells,more resistant to Olaparib
same,autophagy activation (LC3 lipidation),WPMY-1 cells,induced autophagy activation; also recorded: induces autophagy
same,"HA deposition in bone metastasis, pre- vs post-treatment",[3],increased HA deposition
same,"HA deposition in bone metastasis, pre- vs post-treatment",[3]; listed as Ola,robust increase in HA deposition

# Source: patent US20250073234A1, “COMBINATION THERAPIES INCLUDING PARP1 INHIBITORS” (Cornell University, priority 2022, published 2025)
